Experimental findings from ChEMBL document CHEMBL4842347, “Structure-activity relationship and biochemical evaluation of novel fibroblast activation protein and prolyl endopeptidase inhibitors with α-ketoamide warheads” (Eur J Med Chem, 2021) are described below.

Calls of active or inactive are those of the source. No cut-off for these calls is given here.

The target in series [1] is Dipeptidyl peptidase 4 (Homo sapiens, UniProt P27487). As to the kind of experiment: Inhibition of SF-tagged DPP4 (unknown origin) expressed in Drosophila S2 cells using fluorogenic substrate by spectrometric analysis. Type of series: cell-based.
Sequence of Dipeptidyl peptidase 4 (P27487 whole entry): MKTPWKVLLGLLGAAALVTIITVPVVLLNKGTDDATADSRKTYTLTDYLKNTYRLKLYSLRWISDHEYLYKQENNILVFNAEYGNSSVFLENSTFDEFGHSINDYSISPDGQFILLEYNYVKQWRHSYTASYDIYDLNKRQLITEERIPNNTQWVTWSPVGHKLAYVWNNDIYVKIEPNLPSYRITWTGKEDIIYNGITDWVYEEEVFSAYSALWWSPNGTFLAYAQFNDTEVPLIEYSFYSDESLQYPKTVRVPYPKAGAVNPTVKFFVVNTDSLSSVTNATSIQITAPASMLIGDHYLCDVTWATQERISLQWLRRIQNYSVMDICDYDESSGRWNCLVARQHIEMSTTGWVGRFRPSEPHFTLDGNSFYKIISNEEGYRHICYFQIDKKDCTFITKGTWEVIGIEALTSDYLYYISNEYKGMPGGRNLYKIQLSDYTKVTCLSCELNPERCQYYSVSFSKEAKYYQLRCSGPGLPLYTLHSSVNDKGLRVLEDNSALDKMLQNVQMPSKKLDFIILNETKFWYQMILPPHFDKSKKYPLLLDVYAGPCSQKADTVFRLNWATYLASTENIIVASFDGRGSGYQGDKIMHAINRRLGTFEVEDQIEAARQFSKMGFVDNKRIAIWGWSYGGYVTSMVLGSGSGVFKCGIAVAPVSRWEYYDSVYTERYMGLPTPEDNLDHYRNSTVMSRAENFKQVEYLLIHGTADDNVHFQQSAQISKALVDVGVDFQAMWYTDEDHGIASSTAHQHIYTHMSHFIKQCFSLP
Series [2] can be described thus: Inhibition of PREP (unknown origin) using fluorogenic substrate by spectrometric assay. Also noted: species or system Homo sapiens.
The nature of series [3]: Metabolic stability in human plasma incubated for 2 hrs by LC/MS-MS analysis. Type of series: ADME, cell-free.
The nature of series [4]: Drug degradation in human plasma measured up to 1 min incubated for 2 hrs by LC/MS-MS analysis. It is filed as ADME, cell-free.
Series [5] is described as follows: Drug degradation in mouse liver microsomes measured up to 1 min incubated for 2 hrs by LC/MS-MS analysis. It is filed as ADME, Microsome.
The test system of series [6] is CCRF-CEM. As to the kind of experiment: Cytotoxicity against human CCRF-CEM cells assessed as reduction in cell viability incubated for 72 hrs measured by […]-based colorimetric assay. Type of series: functional.
Series [7] concerns HepG2. As to the kind of experiment: Cytotoxicity against human HepG2 cells assessed as reduction in cell viability incubated for 72 hrs measured by […]-based colorimetric assay. Type of series: functional.
Series [8] has as its system HeLa. As to the kind of experiment: Cytotoxicity against human HeLa cells assessed as reduction in cell viability incubated for 72 hrs measured by […]-based colorimetric assay. Type of series: functional.
Series [9] has as its system HL-60. As to the kind of experiment: Cytotoxicity against human HL-60 cells assessed as reduction in cell viability incubated for 72 hrs measured by […]-based colorimetric assay. Type of series: functional.

Usually IC50 stands for the point on the concentration scale where inhibition reaches its midpoint. The low end stands for greater potency, the high end for weaker potency. Turning to `COC(=O)[C@H](Cc1ccccc1)NC(=O)CNC(=O)C(=O)[C@@H]1CCCN1C(=O)CNC(=O)c1ccnc2ccccc12`, the IC50 in [1] is more than 4000 nM; in [2], 0.36 nM. The Stabilty result in series [3] was “Stable”; in [4], “Unstable”; in series [5], “Unstable”. Besides, the result in [6], in [7], in [8] and in series [9] was inactive.
